Test results taken from paper doi:10.1101/2023.02.27.530254, “Large library docking for cannabinoid-1 receptor agonists with reduced side effects” (bioRxiv, 2024).
pEC50: −log10 of the molar value. Where two headings read alike, the source gives them in different places.

Assays:
[1] = test system: C56BL/6 mice; experiment: Acute thermal pain tests (tail flick, hot plate, Hargreaves); format: in vivo, mouse; settings: for tail flick latency of co-injection with morphine (3.0 mg/kg, i.p.) versus morphine alone: 0.05 and 0.1 mg/kg; for analgesic effect under CB1R knockout or AM251 (5.0 mg/kg) pre-treatment: tail flick assay; for lowest dose with significant analgesia (latencies above baseline): tail flick, hot plate and Hargreaves tests, i.p.
[2] = test system: C56BL/6 mice; experiment: Body temperature by telemetric probe; format: in vivo, mouse; settings: body temperature over 150 minutes
Protocol: Body temperature (BT) was measured using a telemetric probe device (HD-X10; Data Science International). Briefly, under anesthesia, the probe device was placed in the mouse abdomen and a subcutaneous tunnel was created from the neck to the abdominal skin, through which a catheter (connected to the probe) was pulled and then inserted into the left carotid artery. Three weeks later, the implanted mice were singly housed in a cage that was placed on top of the DSI receiver (for probe signal detection). […] Data were acquired using the Ponemah Telemetry acquisition software (DSI) and percent changes were presented relative to each mouse’s baseline.

[3] = biological target: hCB1 (Homo sapiens, UniProt P21554); experiment: bioSens-All ebBRET effector biosensor signaling profiling, HEK293; format: cell-based; design: host or cells: HEK293 (HEK293SL clone), transient; settings: for RE, relative efficacy: versus CP-55,940
[4] = biological target: T1, hCB2 (Homo sapiens, UniProt P34972); experiment: as above; format: cell-based; design: host or cells: HEK293 (HEK293SL clone), transient; settings: for RE, relative efficacy: versus CP-55,940
[5] = biological target: T1, hCB2; experiment: TRUPATH BRET2 GoA dissociation assay, HEK293T; format: cell-based; design: expressed in transfected cells; host or cells: HEK293T (transient); settings: HEK-293T, read-out: hCB2 BRET2 + GoA Emax [95% CI]
Protocol: […]. GoA dissociation BRET2 assays were performed as previously described with minor modifications. In brief, HEK293T cells were co-transfected overnight with human CB2 receptor, GαoA-Rluc, Gβ3, and Gγ9-GFP2 constructs. After 18–24 hours, the transfected cells were seeded into poly-L-lysine-coated 384-well white clear-bottom cell culture plates at a density of 15,000–20,000 cells and incubated with DMEM containing 1% dialyzed FBS, 100 U mL−1 of penicillin and 100 μg ml−1 of streptomycin for another 24 hours. The next day, the medium was aspirated and washed once with 20 μL of assay buffer (1× HBSS, 20 mM HEPES, 0.1% BSA, pH 7.4). Then, 20 μL of drug buffer containing coelenterazine 400a (Nanolight Technology) at 5 μM final concentration was added to each well and incubated for 5 minutes, followed by the addition of 10 μL of 3X designated drug buffer for 5 minutes. Then, 10 μL of 4X final concentrations of ligands were added for 5 minutes. […] BRET ratio was computed as the ratio of the GFP2 emission to RLuc8 emission. […] Each experiment was performed in triplicate and functional IC50 values were determined from the mean of four independent experiments.

[6] = HEK293, read-out: hCB2 Barr2 + GRK2 Emax [95% CI]
[7] = HEK293, read-out: hCB2 Gi1 Emax [95% CI]
[8] = HEK293, read-out: hCB2 Gi2 Emax [95% CI]
[9] = HEK293, read-out: hCB2 GoB Emax [95% CI]
[10] = HEK293, read-out: hCB1 Barr2 + GRK2 Emax [95% CI]
[11] = HEK293, read-out: hCB1 G13 Emax [95% CI]
[12] = HEK293, read-out: hCB1 G15 Emax [95% CI]
[13] = HEK293, read-out: hCB1 Gi1 Emax [95% CI]
[14] = HEK293, read-out: hCB1 Gi2 Emax [95% CI]
[15] = HEK293, read-out: hCB1 GoB Emax [95% CI]
[16] = HEK293, read-out: hCB1 Gz Emax [95% CI]
[17] = hCB1 Barr2 + GRK2 pEC50 [95% CI], ßarrestin-2 PM recruitment sensor with GRK2
[18] = hCB1 G13 EC50 [95% CI], G13 sensor
[19] = hCB1 G15 pEC50 [95% CI], G15 sensor
[20] = hCB1 Gi1 pEC50 [95% CI], Gi1 sensor
[21] = hCB1 Gi2 EC50 [95% CI], Gi2 sensor
[22] = hCB1 GoB pEC50 [95% CI], GoB sensor
[23] = hCB1 Gz pEC50 [95% CI], Gz sensor
[24] = HEK293, read-out: hCB2 Gz Emax [95% CI]
[25] = hCB1 Gi1 EC50 [95% CI], Gi1 sensor
[26] = hCB1 GoB EC50 [95% CI], GoB sensor

Sequence of hCB1 (P21554 whole entry): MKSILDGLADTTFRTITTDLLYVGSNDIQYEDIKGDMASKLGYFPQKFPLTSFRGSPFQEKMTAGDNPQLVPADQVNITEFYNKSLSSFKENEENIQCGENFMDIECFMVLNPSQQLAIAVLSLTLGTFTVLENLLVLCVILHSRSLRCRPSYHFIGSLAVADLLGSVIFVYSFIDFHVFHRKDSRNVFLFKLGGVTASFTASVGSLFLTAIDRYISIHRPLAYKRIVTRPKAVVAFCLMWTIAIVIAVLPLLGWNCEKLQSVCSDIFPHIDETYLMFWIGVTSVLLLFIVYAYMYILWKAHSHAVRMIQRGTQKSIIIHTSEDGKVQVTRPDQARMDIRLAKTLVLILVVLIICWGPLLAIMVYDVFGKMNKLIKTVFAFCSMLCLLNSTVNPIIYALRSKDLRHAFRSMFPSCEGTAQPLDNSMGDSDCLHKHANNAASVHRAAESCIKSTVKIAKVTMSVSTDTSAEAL
T1 sequence (P34972 whole entry): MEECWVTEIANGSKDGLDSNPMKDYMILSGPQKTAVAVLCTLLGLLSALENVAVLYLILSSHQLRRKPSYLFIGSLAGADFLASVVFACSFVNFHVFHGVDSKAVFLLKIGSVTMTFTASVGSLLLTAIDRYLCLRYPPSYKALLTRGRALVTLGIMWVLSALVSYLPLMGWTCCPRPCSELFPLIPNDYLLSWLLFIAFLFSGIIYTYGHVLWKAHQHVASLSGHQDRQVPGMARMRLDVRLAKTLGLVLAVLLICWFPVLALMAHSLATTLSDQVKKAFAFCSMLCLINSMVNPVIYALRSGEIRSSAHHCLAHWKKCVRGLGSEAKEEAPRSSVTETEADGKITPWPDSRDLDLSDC

**Q.** Which results are given for CCCCCCC(C)(C)c1ccc([C@@H]2C[C@H](O)CC[C@H]2CCCO)c(O)c1 [CP-55,940, reference compound]?
**A.** dose with increased latencies ([1]; Hargreaves test): 0.2 mg/kg; dose with increased latencies ([1]; tail flick test): 0.5 mg/kg; hypothermia compared to baseline and vehicle [2]: induced hypothermia; Emax ([3]; HEK293, read-out: hCB1 Barr2 + GRK2 Emax [95% CI], ßarrestin-2 sensor with GRK2, normalized to CP-55,940): 89%; Emax ([3]; HEK293, read-out: hCB1 G13 Emax [95% CI], G13 sensor, normalized to CP-55,940): 100%; Emax ([3]; HEK293, read-out: hCB1 G15 Emax [95% CI], G15 sensor, normalized to CP-55,940): 100%; Emax ([3]; HEK293, read-out: hCB1 Gi1 Emax [95% CI], Gi1 sensor, normalized to CP-55,940): 100%; Emax ([3]; HEK293, read-out: hCB1 Gi2 Emax [95% CI], Gi2 sensor, normalized to CP-55,940): 100%; Emax ([3]; HEK293, read-out: hCB1 GoB Emax [95% CI], GoB sensor, normalized to CP-55,940): 100%; Emax [4, 6]: 100%; Emax [4, 7]: 100%; Emax [4, 8]: 100%; Emax [4, 9]: 100%; Emax [5]: 99%

**Q.** For COC(=O)[C@@](C)(NC(=O)c1cc(C)n(-c2cccc(C(F)(F)F)c2)n1)c1cccs1 [‘1350], which “tail flick latency of co-injection with morphine (3.0 mg/kg, i.p.) versus morphine alone” value [1] is on record?
**A.** significantly longer tail flick latencies

**Q.** What about the “analgesic effect under CB1R knockout or AM251 (5.0 mg/kg) pre-treatment” value [1] of the same molecule?
**A.** completely blocked

**Q.** What about the “lowest dose with significant analgesia (latencies above baseline)” value [1] of the same molecule?
**A.** 0.1 mg/kg

**Q.** And the “hypothermia compared to baseline and vehicle” value [2]?
**A.** induced hypothermia

**Q.** And the Emax [3, 10]?
**A.** 63%

**Q.** And the Emax [3, 11]?
**A.** 56%

**Q.** What about the Emax [3, 12] of the same molecule?
**A.** 99%

**Q.** What about the Emax [3, 13] of the same molecule?
**A.** 92%

**Q.** And the Emax [3, 14]?
**A.** 95%

**Q.** What about the Emax [3, 15] of the same molecule?
**A.** 98%

**Q.** And the Emax [3, 16]?
**A.** 94%

**Q.** What about the pEC50 [3, 17] of the same molecule?
**A.** 8.66

**Q.** And the “RE, relative efficacy” value ([3]; hCB1 G13)?
**A.** 1.64

**Q.** What about the pEC50 [3, 18] of the same molecule?
**A.** 9.08

**Q.** What about the “RE, relative efficacy” value ([3]; hCB1 G15) of the same molecule?
**A.** 1.14

**Q.** What about the pEC50 [3, 19] of the same molecule?
**A.** 9.66

**Q.** And the “RE, relative efficacy” value ([3]; hCB1 Gi1)?
**A.** 1.98

**Q.** What about the pEC50 [3, 20] of the same molecule?
**A.** 9.63

**Q.** And the “RE, relative efficacy” value ([3]; hCB1 Gi2)?
**A.** 1.89

**Q.** What about the pEC50 [3, 21] of the same molecule?
**A.** 9.55

**Q.** And the pEC50 ([3]; hCB1 Gi2 pEC50 [95% CI], Gi2 sensor)?
**A.** 9.54

**Q.** What about the pEC50 [3, 22] of the same molecule?
**A.** 9.54

**Q.** And the “RE, relative efficacy” value ([3]; hCB1 GoB)?
**A.** 2.24

**Q.** What about the pEC50 [3, 23] of the same molecule?
**A.** 9.46

**Q.** And the “RE, relative efficacy” value ([3]; hCB1 Gz)?
**A.** 0.77

**Q.** And the “RE, relative efficacy” value ([3]; hCB1 ßarr2 + GRK2)?
**A.** 1.16

**Q.** What about the Emax [4, 6] of the same molecule?
**A.** 30%

**Q.** What about the Emax [4, 7] of the same molecule?
**A.** 74%

**Q.** And the Emax [4, 8]?
**A.** 61%

**Q.** What about the Emax [4, 9] of the same molecule?
**A.** 59%

**Q.** What about the Emax [4, 24] of the same molecule?
**A.** 52%

**Q.** What about the pEC50 ([4]; hCB2 Barr2 + GRK2 pEC50 [95% CI]) of the same molecule?
**A.** 8.38

**Q.** What about the “RE, relative efficacy” value ([4]; hCB2 Gi1) of the same molecule?
**A.** 0.29

**Q.** And the pEC50 ([4]; hCB2 Gi1 EC50 [95% CI])?
**A.** 8.45

**Q.** What about the “RE, relative efficacy” value ([4]; hCB2 Gi2) of the same molecule?
**A.** 0.40

**Q.** What about the pEC50 ([4]; hCB2 Gi2 pEC50 [95% CI]) of the same molecule?
**A.** 8.79

**Q.** And the pEC50 ([4]; hCB2 GoB pEC50 [95% CI])?
**A.** 8.58

**Q.** What about the “RE, relative efficacy” value ([4]; hCB2 GoB) of the same molecule?
**A.** 0.40

**Q.** What about the pEC50 ([4]; hCB2 Gz EC50 [95% CI]) of the same molecule?
**A.** 8.59

**Q.** What about the pEC50 ([4]; hCB2 Gz pEC50 [95% CI]) of the same molecule?
**A.** 8.58

**Q.** What about the “RE, relative efficacy” value ([4]; hCB2 Gz) of the same molecule?
**A.** 0.22

**Q.** What about the “RE, relative efficacy” value ([4]; hCB2 ßarr2 + GRK2) of the same molecule?
**A.** 0.92

**Q.** What does the source list for COC(=O)C(C)(NC(=O)c1cc(C)n(-c2cccc(C(F)(F)F)c2)n1)c1cccs1 (stereo not shown) [‘4042]?
**A.** tail flick latency of co-injection with morphine (3.0 mg/kg, i.p.) versus morphine alone [1]: significantly longer tail flick latencies; analgesic effect under CB1R knockout or AM251 (5.0 mg/kg) pre-treatment [1]: completely blocked; decrease of analgesic effects by CB2R knockout or SR-144528 (1.0 mg/kg) ([1]; tail flick or Hargreaves assays): neither; lowest dose with significant analgesia (latencies above baseline) [1]: 0.1 mg/kg; hypothermia compared to baseline and vehicle [2]: induced hypothermia; Emax [3, 10]: 72%; Emax [3, 11]: 64%; Emax [3, 12]: 105%; Emax [3, 13]: 102%; Emax [3, 14]: 101%; Emax [3, 15]: 103%; Emax [3, 16]: 97%; pEC50 [3, 17]: 8.44; RE, relative efficacy ([3]; hCB1 G13): 0.91; pEC50 [3, 18]: 8.68; pEC50 ([3]; hCB1 G13 pEC50 [95% CI], G13 sensor): 8.69; RE, relative efficacy ([3]; hCB1 G15): 0.74; pEC50 [3, 19]: 9.43; RE, relative efficacy ([3]; hCB1 Gi1): 0.97; pEC50 [3, 25]: 9.32; RE, relative efficacy ([3]; hCB1 Gi2): 1.01; pEC50 [3, 21]: 9.25; pEC50 [3, 26]: 9.19; pEC50 [3, 22]: 9.20; RE, relative efficacy ([3]; hCB1 GoB): 1.04; pEC50 [3, 23]: 9.37; RE, relative efficacy ([3]; hCB1 Gz): 0.62; RE, relative efficacy ([3]; hCB1 ßarr2 + GRK2): 0.81; Emax [4, 6]: 33%; Emax [4, 7]: 82%; Emax [4, 8]: 70%; Emax [4, 9]: 61%; Emax [4, 24]: 56%; pEC50 ([4]; hCB2 Barr2 + GRK2 EC50 [95% CI]): 8.26; RE, relative efficacy ([4]; hCB2 Gi1): 0.63; pEC50 ([4]; hCB2 Gi1 EC50 [95% CI]): 8.57; pEC50 ([4]; hCB2 Gi1 pEC50 [95% CI]): 8.58; RE, relative efficacy ([4]; hCB2 Gi2): 0.59; pEC50 ([4]; hCB2 Gi2 pEC50 [95% CI]): 8.90; pEC50 ([4]; hCB2 GoB pEC50 [95% CI]): 8.60; RE, relative efficacy ([4]; hCB2 GoB): 0.47; pEC50 ([4]; hCB2 Gz EC50 [95% CI]): 8.87; RE, relative efficacy ([4]; hCB2 Gz): 0.38; RE, relative efficacy ([4]; hCB2 ßarr2 + GRK2): 0.82; Emax [5]: 29%

**Q.** Which results are given for COC(=O)C(NC(=O)c1cc(C)n(-c2cccc(C(F)(F)F)c2)n1)c1cccs1 (stereo not shown) [‘60154]?
**A.** Emax [3, 13]: 92%; Emax [3, 15]: 100%; Emax [3, 16]: 121%; pEC50 [3, 25]: 8.60; pEC50 [3, 20]: 7.60; pEC50 [3, 26]: 7.74; pEC50 ([3]; hCB1 Gz EC50 [95% CI], Gz sensor): 7.76; Emax [5]: 31%
